Each structure is given as a SMILES string.

By IC50 is commonly meant the concentration at which inhibition is half-maximal.

The target of assay [1] is Serine/threonine-protein kinase B-raf (Mus musculus, UniProt P28028, V600E). In words: Inhibition of full-length GST-tagged mouse BRAF V600E mutant using recombinant human full length N-terminal His-tagged MEK1 as substrate preincubated for 1 hr followed by substrate addition measured after 25 mins by Nu-page gel-based phosphor screen analysis.
Serine/threonine-protein kinase B-raf, sequence (P28028 whole entry, looked up, stated change not applied): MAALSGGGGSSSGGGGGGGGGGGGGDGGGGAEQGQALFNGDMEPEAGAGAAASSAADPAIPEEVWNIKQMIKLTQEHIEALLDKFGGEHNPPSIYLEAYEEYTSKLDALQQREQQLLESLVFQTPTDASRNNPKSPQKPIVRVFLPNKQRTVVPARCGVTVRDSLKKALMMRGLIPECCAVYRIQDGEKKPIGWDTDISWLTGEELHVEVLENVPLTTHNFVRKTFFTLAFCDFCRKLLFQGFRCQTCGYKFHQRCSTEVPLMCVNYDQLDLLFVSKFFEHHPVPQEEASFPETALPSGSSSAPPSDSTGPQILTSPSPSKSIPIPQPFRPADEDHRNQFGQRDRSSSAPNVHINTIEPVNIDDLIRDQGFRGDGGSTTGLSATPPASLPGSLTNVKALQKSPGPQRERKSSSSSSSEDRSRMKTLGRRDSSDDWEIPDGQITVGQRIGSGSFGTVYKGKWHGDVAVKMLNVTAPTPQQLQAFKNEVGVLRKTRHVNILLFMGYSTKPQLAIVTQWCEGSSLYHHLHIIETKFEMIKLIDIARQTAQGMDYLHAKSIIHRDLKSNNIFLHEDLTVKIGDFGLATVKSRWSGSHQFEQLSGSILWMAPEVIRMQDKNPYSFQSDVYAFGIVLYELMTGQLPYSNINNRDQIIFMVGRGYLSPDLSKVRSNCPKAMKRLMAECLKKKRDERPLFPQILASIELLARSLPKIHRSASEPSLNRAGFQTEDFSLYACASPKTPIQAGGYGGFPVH
In assay [2] the test system is HT-29. In words: Antiproliferative activity against human HT-29 cells harboring BRAF V600E mutant after 24 hrs by MTT assay. It is filed as functional, cell-based. The conditions noted are these: HT-29, 24 h. (Tetrazolium dyes change colour on reduction, which living cells bring about.)
Assay [3] deals with A-375. The assay can be described thus: Antiproliferative activity against human A375 cells harboring BRAF V600E mutant after 24 hrs by MTT assay. It is filed as functional, cell-based. The following applies: A-375, 24 h.
Assay [4] in a line: Antiproliferative activity against human WM1361 cells harboring wild-type BRAF after 48 hrs by MTT assay. The format is functional, cell-based. The following applies: WM1361, 48 h.

As for `Cc1ccc(-n2cc(NC(=O)Cn3ccc4ccccc43)cn2)cc1`, the IC50 in assay [1] is 2.34 µM; in assay [2] it was 24.1 µM; in assay [3], 24.5 µM; in assay [4], 27.4 µM.

As to `COc1cccc(-n2cc(NC(=O)Cn3ccc4ccccc43)cn2)c1`, the IC50 stood at 0.46 µM in assay [1], 10.1 µM in assay [2], 5.67 µM in assay [3] and 16.5 µM in assay [4].

Take `COc1ccc(CC(=O)Nc2cnn(-c3ccccc3)c2)cc1OC`: the IC50 came to 0.73 µM in assay [1], 11.5 µM in assay [2], 16.2 µM in assay [3] and 25.6 µM in assay [4].

With `CCn1cc(NC(=O)Cn2ccc(-c3ccccn3)n2)cn1`, the IC50 is 3.86 µM in assay [1], 26.8 µM in assay [2], 23.3 µM in assay [3] and 29.8 µM in assay [4].

As for `O=C(Cn1ccc2ccccc21)Nc1cnn(Cc2ccccc2)c1`, the IC50 in assay [1] worked out at 1.96 µM; in assay [2] it was 12.3 µM; in assay [3] it was 17.6 µM; in assay [4], 26.8 µM.

For the compound `COc1ccc(CC(=O)Nc2cnn(C)c2)cc1OC`, the IC50 in assay [1] was 4.43 µM; in assay [2], 32.8 µM; in assay [3], 18.6 µM; in assay [4] it was 40.3 µM.

For `COc1ccc(CC(=O)Nc2cnn(Cc3ccccc3)c2)cc1OC`, the IC50 in assay [1] stood at 0.5 µM; in assay [2], 8.43 µM; in assay [3], 10.4 µM; in assay [4], 18.8 µM.

As to `COc1cccc(-n2cc(NC(=O)Cc3ccc(OC)c(OC)c3)cn2)c1`, the IC50 in assay [1] was found to be 0.36 µM; in assay [2], 7.98 µM; in assay [3], 3.49 µM; in assay [4] it was 24 µM.

On to `COc1ccc(-n2cc(NC(=O)Cn3ccc(-c4ccccn4)n3)cn2)cc1`, for which the IC50 in assay [1] came to 0.48 µM; in assay [2], 11.1 µM; in assay [3] it was 11.2 µM; in assay [4] it was 24.4 µM.

Regarding `Cn1cc(NC(=O)Cn2ccc(-c3ccccn3)n2)cn1`, the IC50 is 2.54 µM in assay [1], 25.4 µM in assay [2], 23.7 µM in assay [3] and 31.9 µM in assay [4].

As to `Cn1cc(NC(=O)Cn2ccc3ccccc32)cn1`, the IC50 came out at 4.66 µM in assay [1], 35.1 µM in assay [2], 28.9 µM in assay [3] and 36.5 µM in assay [4].

In the case of `COc1ccc(CC(=O)Nc2cnn(-c3ccc(C)cc3)c2)cc1OC`, the IC50 in assay [1] stood at 0.45 µM; in assay [2], 8.73 µM; in assay [3], 2.74 µM; in assay [4], 16.6 µM.

As for `Cn1cc(NC(=O)Cn2ccc(-c3cccc(Cl)c3)n2)cn1`, the IC50 in assay [1] is 1.67 µM; in assay [2], 22.6 µM; in assay [3], 16.8 µM; in assay [4], 27.9 µM.

On to `CCn1cc(NC(=O)Cc2ccc(OC)c(OC)c2)cn1`, for which the IC50 came to 3.66 µM in assay [1], 25.6 µM in assay [2], 17.9 µM in assay [3] and 31.4 µM in assay [4].

`O=C(Cn1ccc(-c2cccc(Cl)c2)n1)Nc1cnn(Cc2ccccc2)c1`: the IC50 worked out at 0.34 µM in assay [1], 5.7 µM in assay [2], 3.26 µM in assay [3] and 14.9 µM in assay [4].

On to `COc1ccc(-n2cc(NC(=O)Cn3ccc4ccccc43)cn2)cc1`, for which the IC50 in assay [1] worked out at 1.28 µM; in assay [2], 12.7 µM; in assay [3], 19.8 µM; in assay [4], 24.8 µM.

As to `COc1ccc(-n2cc(NC(=O)Cc3ccc(OC)c(OC)c3)cn2)cc1`, the IC50 in assay [1] was determined as 0.41 µM; in assay [2], 9.33 µM; in assay [3], 4.57 µM; in assay [4] it was 17.6 µM.

For `COc1cccc(-n2cc(NC(=O)Cn3ccc(-c4ccccn4)n3)cn2)c1`, the IC50 stood at 0.26 µM in assay [1], 6.16 µM in assay [2], 3.08 µM in assay [3] and 15.7 µM in assay [4].

On to `O=C(Cn1ccc2ccccc21)Nc1cnn(-c2ccccc2)c1`, for which the IC50 came out at 1.23 µM in assay [1], 26.6 µM in assay [2], 24.2 µM in assay [3] and 25.8 µM in assay [4].

In the case of `CCn1cc(NC(=O)Cn2ccc(-c3cccc(Cl)c3)n2)cn1`, the IC50 in assay [1] was 1.19 µM; in assay [2] it was 12.9 µM; in assay [3], 19.4 µM; in assay [4], 26.5 µM.

`O=C(Cn1ccc(-c2ccccn2)n1)Nc1cnn(-c2ccccc2)c1`: the IC50 in assay [1] was 0.53 µM; in assay [2], 10.8 µM; in assay [3], 10.6 µM; in assay [4] it was 20.7 µM.

As for `O=C(Cn1ccc(-c2ccccn2)n1)Nc1cnn(Cc2ccccc2)c1`, the IC50 amounted to 0.55 µM in assay [1], 12.7 µM in assay [2], 19.8 µM in assay [3] and 28 µM in assay [4].

As for `CCn1cc(NC(=O)Cn2ccc3ccccc32)cn1`, the IC50 in assay [1] is 1.82 µM; in assay [2], 49.9 µM; in assay [3], 27.2 µM; in assay [4], 47.8 µM.

The values are drawn from ChEMBL document CHEMBL4190403, “Design, synthesis, and biological evaluation of pyrazole derivatives containing acetamide bond as potential BRAFV600E inhibitors” (Bioorg Med Chem Lett, 2018).
